This note sets out measurements from US9586969B2, “Microbiocidal heterobicyclic derivatives” (Syngenta Participations AG, priority 2014, dated 2017).

Assay [1] deals with Botryotinia fuckeliana (Botrytis cinerea). Put plainly: Botryotinia fuckeliana (Botrytis cinerea) / liquid culture (Gray mould). It counts as cell-based. Conditions: 72 h, 200 ppm, liquid culture, 24° C., inhibition of growth determined photometrically 3-4 days after application, vs untreated control, read-out: disease control.
The test system of assay [2] is Glomerella lagenarium (Colletotrichum lagenarium). Put plainly: Glomerella lagenarium (Colletotrichum lagenarium) / liquid culture (Anthracnose). It counts as cell-based. As to conditions: Colletotrichum orbiculare; 200 ppm; liquid culture, 24° C., inhibition of growth measured photometrically 3-4 days after application; vs untreated control; read-out: disease control.

For `CC1(C)Cc2c(F)cccc2C(c2cnn3c(F)cc(F)c3c2)=N1` [E 11], the inhibition of growth at 200 ppm in assay [1] and in assay [2] was no less than 80% each time.

Turning to `CC1(C)N=C(c2cnn3ccc(Cl)c3c2)c2cccc(F)c2C1(C)C` [E 16], the inhibition of growth at 200 ppm in assay [1] and in assay [2] was no less than 80% in each case.

For the compound `CC1(C)Cc2ccccc2C(c2cnn3cccc3c2)N1` (stereo not shown) [E 20], the inhibition of growth at 200 ppm in assay [1] is no less than 80%.

With `COc1cccc2c1CC(C)(C)N=C2c1cnn2c(F)ccc2c1` [E 23], the inhibition of growth at 200 ppm in assay [1] and in assay [2] was no less than 80% each time.

On to `CC1(C)Cc2c(cccc2-c2ccccc2F)C(c2cnn3c(F)ccc3c2)=N1` [E 28], for which the inhibition of growth at 200 ppm in assay [1] and in assay [2] was no less than 80% in each case.

As for `CC1(C)Cc2c(O)cccc2C(c2cnn3cccc3c2)=N1` [E 34], the inhibition of growth at 200 ppm in assay [1] and in assay [2] was no less than 80% each time.

As for `CC1(C)N=C(c2cnn3c(F)cc(C(F)(F)F)c3c2)c2cccc(F)c2C1(C)C` [E 35], the inhibition of growth at 200 ppm in assay [1] and in assay [2] was no less than 80% throughout.

For `CC1(C)N=C(c2cnn3c(C(F)(F)F)cc(C(F)(F)F)c3c2)c2cccc(F)c2C1(C)C` [E 36], the inhibition of growth at 200 ppm in assay [1] was no less than 80%.

As to `CC1(C)Cc2c(OC(F)F)cccc2C(c2cnn3cccc3c2)=N1` [E 39], the inhibition of growth at 200 ppm in assay [1] was no less than 80%.

`C#Cc1cc(F)n2ncc(C3=NC(C)(C)C(C)(C)c4c(F)cccc43)cc12` [E 40]: the inhibition of growth at 200 ppm in assay [1] and in assay [2] was no less than 80% throughout.

For the compound `CC1(C)N=C(c2cnn3c(Br)cc(Br)c3c2)c2cccc(F)c2C1(C)C` [E 44], the inhibition of growth at 200 ppm in assay [1] is no less than 80%.

Turning to `CO/N=C(\C)c1cccc2c1CC(C)(C)N=C2c1cnn2cccc2c1` [E 56], the inhibition of growth at 200 ppm in assay [1] and in assay [2] was no less than 80% each time.

As to `CO/N=C(/C)c1cccc2c1CC(C)(C)N=C2c1cnn2cccc2c1` [E 57], the inhibition of growth at 200 ppm in assay [1] and in assay [2] was no less than 80% throughout.

Turning to `CC1(C)Cc2c(cccc2C2CC2)C(c2cnn3cccc3c2)=N1` [E 59], in assay [1], the inhibition of growth at 200 ppm was no less than 80%.

`CC1(C)N=C(c2cnn3cccc3c2)c2cccc(C#N)c2C1(C)C` [E 68]: the inhibition of growth at 200 ppm in assay [1] and in assay [2] was no less than 80% in each case.

As to `Cc1c(C2=NC(C)(C)C(C)(C)c3c(F)cccc32)cnn2c(C#N)ccc12` [E 83], the inhibition of growth at 200 ppm in assay [1] and in assay [2] was no less than 80% each time.

For `CC1(C)Cc2c(F)cccc2C(c2cnn3ccnc3c2)=N1` [E 86], the inhibition of growth at 200 ppm in assay [1] is no less than 80%.

For `CC1(C)N=C(c2cnn3c(C#N)cnc3c2)c2cccc(F)c2C1(F)F` [E 88], in assay [1], the inhibition of growth at 200 ppm was no less than 80%.

For the compound `CC1(C)N=C(c2cnn3ccnc3c2)c2cccc(F)c2C1(F)F` [E 89], the inhibition of growth at 200 ppm in assay [1] and in assay [2] was no less than 80% in each case.

On to `CC1(C)N=C(c2cnn3c(Br)cnc3c2)c2cccc(F)c2C1(F)F` [E 91], for which, in assay [1], the inhibition of growth at 200 ppm is no less than 80%.

With `Cc1nn2cccc2cc1C1=NC(C)(C)C(C)(C)c2c(F)cccc21` [E 92], the inhibition of growth at 200 ppm in assay [1] and in assay [2] was no less than 80% in each case.

Regarding `Cc1c(C2=NC(C)(C)C(C)(C)c3c(F)cccc32)cnn2cccc12` [E 93], the inhibition of growth at 200 ppm in assay [1] and in assay [2] was no less than 80% each time.

`CC1(C)N=C(c2cnn3cccc3c2)c2ccc(Cl)c(F)c2C1(C)C` [E 94]: the inhibition of growth at 200 ppm in assay [1] and in assay [2] was no less than 80% throughout.

Take `Cc1c(C2=NC(C)(C)C(C)(C)c3c(F)cccc32)cnn2c(F)ccc12` [E 95]: the inhibition of growth at 200 ppm in assay [1] and in assay [2] was no less than 80% each time.
